According to PubChem BioAssay (NCI):
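48-hour exposure; five concentrations; linearly interpolated endpoints. Here, GI50 denotes the concentration required for 50% inhibition of growth. At the TGI there is no net growth.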

What was measured:
Assay in all cases: NCI anticancer screen, dose series, 48 h
HCT-15 colon = tested on: HCT-15 colon
HOP-62 NSCLC = tested on: HOP-62 NSCLC
HOP-92 NSCLC = tested on: HOP-92 NSCLC
K-562 leukemia = tested on: K-562 leukemia
LOX IMVI melanoma = tested on: LOX IMVI melanoma
MDA-MB-231 breast = tested on: MDA-MB-231 breast
OVCAR-4 ovarian = tested on: OVCAR-4 ovarian
SK-MEL-5 melanoma = tested on: SK-MEL-5 melanoma
SN12C renal = tested on: SN12C renal
U251 CNS = tested on: U251 CNS

Row | Structure (SMILES) | GI50 (HCT-15 colon) | TGI (HCT-15 colon) | GI50 (HOP-62 NSCLC) | TGI (HOP-62 NSCLC) | GI50 (HOP-92 NSCLC) | TGI (HOP-92 NSCLC) | GI50 (K-562 leukemia) | TGI (K-562 leukemia) | GI50 (LOX IMVI melanoma) | TGI (LOX IMVI melanoma) | GI50 (MDA-MB-231 breast) | TGI (MDA-MB-231 breast) | GI50 (OVCAR-4 ovarian) | TGI (OVCAR-4 ovarian) | GI50 (SK-MEL-5 melanoma) | TGI (SK-MEL-5 melanoma) | GI50 (SN12C renal) | TGI (SN12C renal) | GI50 (U251 CNS) | TGI (U251 CNS)
1 | Cn1cc(C2=C(c3cn(CCCN/C(N)=N\[N+](=O)[O-])c4ccccc34)C(=O)NC2=O)c2ccccc21 | 19.8 µM | > 25 µM | 3.89 µM | > 16.6 µM | 3.89 µM | 16.2 µM | 2.95 µM | > 22.5 µM | 0.949 µM | 21.6 µM | 3.8 µM | 16.5 µM | 3.22 µM | 17.4 µM | 2.33 µM | 7.37 µM | 2.65 µM | 16.6 µM | 2.05 µM | 15.4 µM
2 | O=c1c(Br)ccc(Br)cc1Br | 0.752 µM | 2.48 µM | 2.38 µM | 5.58 µM | 1.53 µM | 3.05 µM | 0.527 µM | 3.64 µM | 0.897 µM | 2.35 µM | 1.99 µM | 3.68 µM | 2.47 µM | 4.63 µM | 3.19 µM | 10.9 µM | 2.11 µM | 4.68 µM | 1.84 µM | 3.34 µM
3 | COC(=O)/C=C/c1cc(OC)c2c(c1)[C@@H](C(=O)OC)[C@H](c1ccc(OC)c(OC)c1)O2 | 0.486 µM | > 100 µM | 4.33 µM | > 100 µM | 13.1 µM | > 100 µM | – | – | 0.771 µM | > 100 µM | 7.39 µM | > 100 µM | 4.76 µM | > 100 µM | 0.901 µM | > 100 µM | 6.44 µM | > 100 µM | 1.38 µM | > 100 µM
4 | C/C(=N\O)c1ccc(Nc2cc(-c3ccccc3)nc3c(O)cccc23)cc1 | 4.75 µM | 26.4 µM | 12.9 µM | 26.6 µM | 20.1 µM | 44.6 µM | 15.2 µM | 97.6 µM | 6.71 µM | 24 µM | 2.46 µM | 11.8 µM | 25.4 µM | 73.2 µM | – | – | 11.9 µM | 27.6 µM | 11.8 µM | 38.6 µM
5 | COc1ccc2nc3c(cc2c1)C(=O)CC(C(F)(F)F)C3 (centres undefined) | 1.28 µM | > 100 µM | 3.36 µM | > 100 µM | 2.8 µM | 94.2 µM | 0.406 µM | > 100 µM | 3.54 µM | > 100 µM | 2.34 µM | > 100 µM | 27 µM | > 100 µM | 0.545 µM | 9.75 µM | 0.805 µM | > 100 µM | 5.82 µM | > 100 µM
6 | COc1cc(-c2nc3cc(Cl)c(Cl)cc3[nH]2)ccc1OCC(=O)N=Nc1c(O)[nH]c2ccccc12 | – | > 56.5 µM | 0.832 µM | 2.62 µM | 0.794 µM | 2.42 µM | 0.345 µM | > 31.7 µM | 0.192 µM | 0.368 µM | 0.45 µM | 1.69 µM | 0.307 µM | 0.921 µM | 0.541 µM | 1.76 µM | 0.506 µM | 1.8 µM | 0.244 µM | 0.681 µM
7 | COc1cc(Nc2nccc(-c3cnn4ncccc34)n2)cc(OC)c1 | 0.0889 µM | > 5.17 µM | 0.0868 µM | 0.651 µM | 0.0317 µM | 0.151 µM | 0.115 µM | > 25 µM | 0.0539 µM | > 9.54 µM | 0.0751 µM | > 11.9 µM | 0.268 µM | 1.35 µM | 0.151 µM | 3.19 µM | 0.0942 µM | > 25 µM | 0.075 µM | 2.46 µM
8 | Cc1cnc2n(c1=O)Cc1ccccc1CO2 | 17.1 µM | 33.8 µM | 20 µM | 38 µM | 19.3 µM | 44.3 µM | 18.7 µM | 48.3 µM | 14.6 µM | 31.9 µM | 11.8 µM | 32 µM | 22 µM | 64.1 µM | 15.4 µM | 29.5 µM | 23.2 µM | 71.3 µM | 15.7 µM | 29.9 µM
9 | COc1ccc(S(=O)(=O)Nc2c(/C=C\c3cc(OC)c(OC)c(OC)c3)ccc(OC)c2O)cc1OC | 0.308 µM | > 100 µM | 0.61 µM | > 100 µM | 0.0801 µM | > 100 µM | 0.0927 µM | > 100 µM | 0.294 µM | > 100 µM | 0.338 µM | > 100 µM | 0.664 µM | > 100 µM | 0.0985 µM | 0.435 µM | 0.484 µM | > 100 µM | 0.365 µM | > 100 µM
10 | c1ccc2c(c1)-c1nc3ccccc3cc1C2N1CCOCC1 (centres undefined) | – | > 100 µM | – | > 100 µM | – | – | – | > 100 µM | – | > 100 µM | – | > 100 µM | – | > 100 µM | – | > 100 µM | – | > 100 µM | – | > 100 µM
11 | C=C(C=O)[C@@H]1CC=C(C=O)CC1 | 2.4 µM | 10.1 µM | 24.8 µM | > 76.7 µM | 2.38 µM | 7.58 µM | 1.7 µM | > 100 µM | – | – | 6.88 µM | 20.1 µM | 4.19 µM | > 100 µM | 3.9 µM | > 46.5 µM | 4.31 µM | 33.9 µM | 2.4 µM | 6.71 µM
12 | Cc1cccc(C)c1NC(=O)/C(CC(=O)CC(c1ccccc1)c1c(O)c2ccccc2oc1=O)=N/O (centres undefined) | – | > 100 µM | – | > 100 µM | – | > 100 µM | – | – | – | > 100 µM | – | > 100 µM | – | > 100 µM | – | > 100 µM | – | > 100 µM | – | > 100 µM
13 | Nc1c(S(=O)(=O)O)cc2c(c1Cl)C(=O)c1ccccc1C2=O | > 100 µM | > 100 µM | > 100 µM | > 100 µM | > 100 µM | > 100 µM | > 100 µM | > 100 µM | > 100 µM | > 100 µM | > 100 µM | > 100 µM | – | – | > 100 µM | > 100 µM | > 100 µM | > 100 µM | > 100 µM | > 100 µM
